From EPA's ToxValDB 9.5 (doi:10.2903/j.efsa.2010.1555)

Tests used:
[1] = test system: Rattus norvegicus
[2] = test system: Anas platyrhynchos
[3] = test system: Coturnix coturnix; conditions: acute; oral; diet; mortality
[4] = test system: Oncorhynchus mykiss
[5] = test system: Colinus virginianus
[6] = test system: Daphnia magna; conditions: chronic/long-term; duration: 21 days; reproduction
[7] = test system: Canidae; conditions: chronic; duration: 1 years; oral; Dog Other
[8] = test system: Apis mellifera; conditions: acute; oral; unspecified; mortality
[9] = test system: Tagia sp.; conditions: acute; duration: 14 days; mortality
[10] = test system: Coturnix japonica; conditions: reproduction developmental
[11] = reproduction developmental, body weight

In the case of `CCC([O-])=C1C(=O)CC(C(=O)[O-])CC1=O.[Ca+2]` (stereo unspecified) [Prohexadione-calcium], the LD50 ([1]; acute, oral, mortality) is reported as > 5000 mg/kg, the NOAEL [1, 11] is reported as 35 mg/kg-day and the NOEL [1, 11] is reported as 35 mg/kg-day. The LD50 ([2]; acute, oral, unspecified, mortality) was > 2000 mg/kg, the NOEC ([2]; reproductive) was 116 mg/kg-day and the LC50 ([2]; short-term, oral, feed, mortality) was > 1350 mg/kg-day. For the same compound, the LC50 [3] was > 1210 mg/kg-day, the LC50 ([4]; acute, duration: 96 hours, mortality) was > 100 mg/L and the NOEC ([4]; chronic/long-term, duration: 28 days, growth) was 100 mg/L. For the same compound, the LD50 ([5]; acute, oral, mortality) was > 2000 mg/kg, the NOEC ([5]; reproduction developmental) was 48.8 mg/kg-day and the NOEC [6] was 100 mg/L. The NOAEL [7] was 20 mg/kg-day, the LD50 [8] was > 100 µg/piece and the LC50 [9] was > 1000 mg/kg. For the same compound, the NOEC [10] was 126 mg/kg-day.
